From ChEMBL document CHEMBL2169878 (J Med Chem, 2012)
Calls of active or inactive are those of the source. The rule behind the calls is not given here.

Tests used:
Plasmodium berghei [1] = experiment: Antimalarial activity against Plasmodium berghei ANKA expressing GFP infected in mouse assessed as mean survival days at 30 mg/kg, po administered 24 hrs post-infection (reference value: 6 to 7 days); format: functional
[2] = Ratio of drug uptake in blood to plasma in CD1 albino mouse; format: ADME; settings: whole blood and plasma
Heart [3] = experiment: Cardiotoxicity against Sprague-Dawley rat Langendorff perfused heart assessed as QTc time interval at 1 uM by electrophysiological analysis (reference value: 145.78 10.53 ms); format: toxicity, tissue-based
Heart [4] = experiment: Cardiotoxicity against Sprague-Dawley rat Langendorff perfused heart assessed as heart rate at 0.1 uM by electrophysiological analysis (reference value: 236.68 7.83 bpm); format: toxicity, tissue-based
Plasmodium berghei [5] = experiment: Antimalarial activity against Plasmodium berghei ANKA expressing GFP infected in mouse assessed as mean survival days at 50 mg/kg, po administered QD for 3 days (reference value: 6 to 7 days); format: functional
Heart [6] = experiment: Cardiotoxicity against Sprague-Dawley rat Langendorff perfused heart assessed as PQ prolongation-induced atrioventricular block at 30 uM by electrophysiological analysis; format: toxicity, tissue-based
Heart [7] = experiment: Cardiotoxicity against Sprague-Dawley rat Langendorff perfused heart assessed as QT time interval at 10 uM by electrophysiological analysis (reference value: 73.01 4.52 ms); format: toxicity, tissue-based
Salmonella typhimurium [8] = experiment: Mutagenicity against Salmonella typhimurium TA98 assessed as revertants at 6 uM incubated for 90 mins followed by drug washout measured after 2 days relative to positive control; format: toxicity, organism-based; settings: salmonella enterica subsp. enterica serovar typhimurium, 1.5 h
Plasmodium berghei [9] = experiment: Antimalarial activity against Plasmodium berghei ANKA expressing GFP infected in mouse assessed as cure from infection at 30 mg/kg, po administered QD for 3 days measured on day 30; format: functional, organism-based; set-up: dose 30 mg/kg
[10] = target: T1, Chloroquine resistance transporter (Plasmodium falciparum) (UniProt Q9N623); experiment: Inhibition of chloroquine-sensitive Plasmodium falciparum D10 CRT expressed in Xenopus laevis oocyte assessed as inhibition of [3H]chloroquine uptake at 100 uM measured from 1 to 2 hrs
T1 sequence (whole entry): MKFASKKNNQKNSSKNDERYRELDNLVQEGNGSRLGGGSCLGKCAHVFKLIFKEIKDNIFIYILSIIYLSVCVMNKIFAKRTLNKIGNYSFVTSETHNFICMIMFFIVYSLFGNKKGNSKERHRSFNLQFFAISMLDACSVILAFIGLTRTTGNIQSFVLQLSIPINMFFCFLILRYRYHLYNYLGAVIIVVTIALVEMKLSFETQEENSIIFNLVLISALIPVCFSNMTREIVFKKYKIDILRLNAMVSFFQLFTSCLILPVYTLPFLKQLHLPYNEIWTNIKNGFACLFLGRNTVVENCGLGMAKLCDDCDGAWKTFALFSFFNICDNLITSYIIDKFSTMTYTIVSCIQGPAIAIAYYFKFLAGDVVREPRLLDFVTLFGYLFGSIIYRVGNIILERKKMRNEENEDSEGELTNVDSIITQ

[11] = Elimination half life in CD1 albino mouse plasma at 50 mg/kg, po measured from 6 to 48 hrs post-dosing; format: ADME, organism-based; set-up: dose 50 mg/kg, route oral; settings: read-out: beta t1/2 (converted)
Salmonella typhimurium [12] = experiment: Mutagenicity against Salmonella typhimurium TA100 assessed as revertants at 12 uM incubated for 90 mins followed by drug washout measured after 2 days relative to positive control; format: toxicity, organism-based; settings: salmonella enterica subsp. enterica serovar typhimurium
Plasmodium berghei [13] = experiment: Antimalarial activity against Plasmodium berghei ANKA expressing GFP infected in mouse assessed as mean survival days at 100 mg/kg, po administered 24 hrs post-infection (reference value: 6 to 7 days); format: functional
Heart [14] = experiment: Cardiotoxicity against Sprague-Dawley rat Langendorff perfused heart assessed as QT time interval at 0.1 uM by electrophysiological analysis (reference value: 73.01 4.52 ms); format: toxicity, tissue-based
Plasmodium berghei [15] = experiment: Antimalarial activity against Plasmodium berghei ANKA expressing GFP infected in mouse assessed as reduction in parasitemia at 30 mg/kg, po administered 24 hrs post-infection measured 48 hrs post-dosing by flow cytometric analysis; format: functional; set-up: scale not given: the % may be the effect or the level left
Heart [16] = experiment: Cardiotoxicity against Sprague-Dawley rat Langendorff perfused heart assessed as QTc time interval at 10 uM by electrophysiological analysis (reference value: 145.78 10.53 ms); format: toxicity, tissue-based
Heart [17] = experiment: Cardiotoxicity against Sprague-Dawley rat Langendorff perfused heart assessed as atrioventricular conduction time at 10 uM by electrophysiological analysis (reference value: 42.67 2.29 ms); format: toxicity, tissue-based
Plasmodium falciparum [18] = experiment: Antiplasmodial activity against chloroquine-sensitive Plasmodium falciparum D10 infected in human RBC after 72 hrs by parasite lactate dehydrogenase assay; format: functional, organism-based; settings: D10, 72 h
Salmonella typhimurium [19] = experiment: Mutagenicity against Salmonella typhimurium TA100 assessed as revertants at 3 uM incubated for 90 mins followed by drug washout measured after 2 days relative to positive control; format: toxicity, organism-based; settings: salmonella enterica subsp. enterica serovar typhimurium, 1.5 h
Plasmodium falciparum [20] = experiment: Antiplasmodial activity against chloroquine-resistant Plasmodium falciparum W2 infected in human RBC after 72 hrs by parasite lactate dehydrogenase assay; format: functional, organism-based; settings: W2, 72 h
Salmonella typhimurium [21] = experiment: Mutagenicity against Salmonella typhimurium TA98 assessed as revertants at 12 uM incubated for 90 mins followed by drug washout measured after 2 days relative to positive control; format: toxicity, organism-based; settings: salmonella enterica subsp. enterica serovar typhimurium
Heart [22] = experiment: Cardiotoxicity against Sprague-Dawley rat Langendorff perfused heart assessed as intraventricular conduction time at 10 uM by electrophysiological analysis (reference value: 13.92 0.42 ms); format: toxicity, tissue-based
Salmonella typhimurium [23] = experiment: Mutagenicity against Salmonella typhimurium TA100 assessed as revertants at 1.5 uM incubated for 90 mins followed by drug washout measured after 2 days relative to positive control; format: toxicity, organism-based; settings: salmonella enterica subsp. enterica serovar typhimurium, 1.5 h
Heart [24] = experiment: (§1) Cardiotoxicity against Sprague-Dawley rat Langendorff perfused heart assessed as reduction in left ventricular pressure by electrophysiological analysis; format: toxicity, tissue-based
[25] = as §1; format: toxicity, tissue-based; settings: Sprague-Dawley, Langendorff perfused heart
Heart [26] = experiment: Cardiotoxicity against Sprague-Dawley rat Langendorff perfused heart assessed as QT time interval at 1 uM by electrophysiological analysis (reference value: 73.01 4.52 ms); format: toxicity, tissue-based
Plasmodium falciparum [27] = experiment: Resistance ratio of IC50 for chloroquine-resistant Plasmodium falciparum W2 to IC50 for chloroquine-sensitive Plasmodium falciparum D10; format: functional
Plasmodium berghei [28] = experiment: Antimalarial activity against Plasmodium berghei ANKA expressing GFP infected in mouse assessed as mean survival days at 30 mg/kg, po administered at 6,[…],[…] and 72 hrs post-infection (reference value: 6 to 7 days); format: functional
Plasmodium falciparum [29] = experiment: Antiplasmodial activity against chloroquine-resistant Plasmodium falciparum K1 infected in human erythrocytes assessed as inhibition of [3H]hypoxanthine incorporation incubated for 48 hrs prior to [3H]hypoxanthine addition measured after 48 hrs by liquid scintillation counting; format: functional, organism-based
Plasmodium berghei [30] = experiment: Antimalarial activity against Plasmodium berghei ANKA expressing GFP infected in mouse assessed as cure from infection at 30 mg/kg, po administered 24 hrs post-infection measured on day 30; format: functional, organism-based; set-up: dose 30 mg/kg
[31] = Elimination half life in CD1 albino mouse liver at 50 mg/kg, po; format: ADME, organism-based; set-up: dose 50 mg/kg, route oral; settings: read-out: beta t1/2 (converted)
Heart [32] = experiment: Cardiotoxicity against Sprague-Dawley rat Langendorff perfused heart assessed as heart rate at 30 uM by electrophysiological analysis (reference value: 236.68 7.83 bpm); format: toxicity, tissue-based
Plasmodium berghei [33] = experiment: Antimalarial activity against Plasmodium berghei ANKA expressing GFP infected in mouse assessed as reduction in parasitemia at 100 mg/kg, po administered 24 hrs post-infection measured 48 hrs post-dosing by flow cytometric analysis; format: functional; set-up: scale not given: the % may be the effect or the level left

SMILES: Clc1ccc(C(Nc2ccnc3cc(Cl)ccc23)c2ccc(CN3CCNCC3)cc2)cc1 (racemic)
- MSD (Plasmodium berghei [1]): 15.8 days
- blood plasma ratio [2]: 1.9
- Time (Heart [3]): 151.17 ms
- Activity (Heart [4]): 235.08 bpm
- MSD (Plasmodium berghei [5]): 29.6 days
- Activity (Heart [6]): Toxic
- Time (Heart [7]): 94.5 ms
- Activity (Salmonella typhimurium [8]): 6%
- Activity (Plasmodium berghei [9]): inactive
- inhibition [10]: inactive
- half-life [11]: 22 h
- Activity (Salmonella typhimurium [12]): 17%
- MSD (Plasmodium berghei [13]): 28.8 days
- Time (Heart [14]): 74 ms
- Activity (Plasmodium berghei [15]): 99.7%
- Time (Heart [16]): 177.33 ms
- Time (Heart [17]): 50.56 ms
- IC50 (Plasmodium falciparum [18]): 62 nM
- Activity (Salmonella typhimurium [19]): 22%
- IC50 (Plasmodium falciparum [20]): 58 nM
- Activity (Salmonella typhimurium [21]): 4%
- Time (Heart [22]): 17 ms
- Activity (Salmonella typhimurium [23]): 19%
- Activity (Heart [24]): Dose-dependent effect
- IC50 [25]: 9500 nM
- Time (Heart [26]): 76.5 ms
- Ratio IC50 (Plasmodium falciparum [27]): 0.93
- MSD (Plasmodium berghei [28]): 30 days
- IC50 (Plasmodium falciparum [29]): 22 nM
- Activity (Plasmodium berghei [30]): inactive
- half-life [31]: 29 h
- Activity (Heart [32]): 116.31 bpm
- Activity (Plasmodium berghei [33]): 99.5%
